The target of one assay is T1, CPT-1 (Homo sapiens, UniProt P50416).
T1 construct: endogenous in cells; host or cells: MCF-7 human breast cancer cells
T1 sequence (P50416 1-773): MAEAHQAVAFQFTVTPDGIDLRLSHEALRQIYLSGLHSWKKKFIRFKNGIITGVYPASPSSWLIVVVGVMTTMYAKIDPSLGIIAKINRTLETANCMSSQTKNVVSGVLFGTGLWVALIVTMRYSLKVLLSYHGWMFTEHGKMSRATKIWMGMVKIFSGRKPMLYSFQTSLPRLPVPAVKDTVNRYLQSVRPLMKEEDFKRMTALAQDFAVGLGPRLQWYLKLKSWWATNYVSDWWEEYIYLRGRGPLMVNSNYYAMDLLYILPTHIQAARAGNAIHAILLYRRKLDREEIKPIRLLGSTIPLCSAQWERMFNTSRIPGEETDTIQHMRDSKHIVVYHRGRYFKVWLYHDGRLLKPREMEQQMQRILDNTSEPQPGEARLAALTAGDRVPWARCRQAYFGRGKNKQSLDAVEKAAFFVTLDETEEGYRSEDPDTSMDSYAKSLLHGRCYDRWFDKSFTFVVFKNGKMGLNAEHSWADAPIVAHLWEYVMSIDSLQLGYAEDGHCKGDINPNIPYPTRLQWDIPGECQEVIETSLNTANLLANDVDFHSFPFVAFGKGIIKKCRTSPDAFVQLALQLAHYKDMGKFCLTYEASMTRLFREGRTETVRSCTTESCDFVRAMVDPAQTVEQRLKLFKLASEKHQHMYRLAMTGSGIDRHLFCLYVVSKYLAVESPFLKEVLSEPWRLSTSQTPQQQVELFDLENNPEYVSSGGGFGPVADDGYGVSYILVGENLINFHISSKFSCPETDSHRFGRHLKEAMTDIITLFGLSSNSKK
Nature of the assay: CPT-1 activity assay in MCF-7 cells. It counts as cell-based. The procedure:
CPT-1 activity was assayed in MCF-7 cells by the following published procedure: MCF-7 cells were plated in DMEM with 10% fetal bovine serum at 10^6 cells in 24-well plates in triplicate. Following overnight incubation at 37° C., the medium was removed and replaced with 700 μl of assay medium consisting of: 50 mM imidazole, 70 mM KCl, 80 mM sucrose, 1 mM EGTA, 2 mM MgCl2, 1 mM DTT, 1 mM KCN, 1 mM ATP, 0.1% fatty acid free bovine serum albumin, 70 μM palmitoyl-CoA, 0.25 μCi [methyl-^14C]L-carnitine, 40 μg digitonin with or without 20 μM malonyl-CoA. After incubation for 6 minutes at 37° C., the reaction was stopped by the addition of 500 μl of ice-cold 4 M perchloric acid. Cells were then harvested and centrifuged at 13,000×g for 5 min. The pellet was washed with 500 μl ice cold 2 mM perchloric acid and centrifuged again. The resulting pellet was resuspended in 800 μl dH2O and extracted with 150 μl of butanol. The butanol phase was counted by liquid scintillation and represents the acylcarnitine derivative.
MCF-7 cells were treated with C75 at 10 or 20 μg/mL for 1 hr before CPT-1 activity was assayed. The assay was performed with the C75 and malonyl-CoA concentrations indicated (“M” indicates malonyl-CoA at 20 uM). Malonyl-CoA treatment alone caused a 46% reduction in CPT-1 activity similar to the previous experiment (see FIG. 2; p=0.02, two-tailed t-test, Prism 3.0). The level of malonyl-CoA inhibition of the CPT-1 activity is consistent with the activity of the liver isoform of CPT-1 in MCF-7 cells. The Ki of malonyl-CoA for the liver isoform of CPT-1 is ˜7 μM while the Ki for the muscle isoform of CPT-1 is 0.07 μM. Thus, MCF-7 cells express predominantly the liver isoform of CPT-1 (consistent with the immunoblot analysis).
FAS activity was measured by monitoring the malonyl-CoA dependent oxidation of NADPH spectrophotometrically at OD340 in 96-well plates, as described in International Patent Publication WO 2004/005277. The IC50 for the compounds against FAS was determined by plotting the change in OD340 against time for each inhibitor concentration tested and determining the rate of change by linear regression. The concentration of a particular compound yielding 50% inhibition of the rate for FAS in the absence of the compound is the IC50. Stimulation of CPT-1 activity was measured as described in Example 2, except the cells were preincubated with the compound for 2 hours at the concentrations indicated in the table. Stimulation of Fatty acid oxidation was determined as described in Example 1 for cells preincubated with the compounds at the concentrations indicated in the table.

For assay [1], the system named is MCF-7 cells. Kind of assay: Total cellular ATP (luciferase assay) in MCF-7 cells. Format: cell-based, human. As to conditions: MCF-7, 10 μg/ml and 20 μg/ml, 2 hours, FIG. 5. The procedure: (§1) 1×10^5 MCF-7 cells were plated in 96 well plates. Cells were treated with C75 or vehicle. After 2 hours, ATP was measured using a luciferase assay using the ATP Bioluminescence Kit CLS II (Roche) following the manufacturer's protocol. Plates were read by a Perkin Elmer Wallac Victor^2 1420 luminometer. […] Similar results were obtained after 1 hr incubation with C75. Thus, cellular energy production increased as a result of C75 increasing fatty acid oxidation.

The next assay relates to 3T3-L1 adipocytes. Nature of the assay: Total cellular ATP in differentiated 3T3-L1 adipocytes. Format: cell-based, mouse. As to conditions: 20 μg/ml or greater, 2 hours, FIG. 7. The method, then: as §1
To expand the study of effects of C75 on fatty acid metabolism beyond cancer cell lines to normal adipocytes, differentiated (non-transformed) mouse NIH 3T3-L1 adipocytes were used in assays similar to those performed with the MCF-7 cells. 3T3-L1 cells were obtained from the American Type Culture Collection, and cells were cultured in DMEM with high glucose (4.5 g/l ) (Gibco 12100-046) with 10% fetal calf serum and Biotin (Sigma B-4639) 0.008 g/L. Differentiation was initiated three days after the cells were confluent, when the standard culture medium was replaced with differentiation medium. […] The differentiated cells were ready to be used for experiments in 7-10 days.
C75 increased CPT-1 activity and fatty acid metabolism in the NIH 3T3-L1 cells differentiated into adipocytes. […] CPT-1 activity, fatty acid oxidation, and total cellular ATP were measured as described in Examples 2, 1, and 4. […]

The subject of assay [2] is MCF-7 cells. To be noted: cited from earlier work.

`C=C1C(=O)OC(CCCCCCCC)C1C(=O)O` (stereo not drawn) [Compound C75]: on CPT-1 (20 μg/mL, cells preincubated 2 hours), the “CPT-1 Stimulation (% Control)” value is recorded as 125 % Control. For the same compound, the “CPT-1 activity, % of control” value is 166 % of control at CPT-1 (MCF-7, 20 μg/ml 1 hr before assay, FIG. 4) and 158 % of control on CPT-1 (MCF-7, 20 μg/ml for one hour before assay, no C75 in the assay buffer, FIG. 3). Moreover, the “CPT-1 stimulation after C75 removed from buffer and malonyl-CoA 20 μM added” value on CPT-1 (MCF-7, C75 20 μg/ml one hour pretreatment, FIG. 3) is “stimulatory activity is lost”. Further, the “difference in CPT-1 activity between C75 and C75 plus malonyl-CoA” value at CPT-1 (MCF-7, C75 10 or 20 μg/mL 1 hr, malonyl-CoA 20 uM, FIG. 2) was “no statistically significant difference”. For the same compound, the “stimulated CPT-I activity” value on CPT-1 (MCF-7 cells in vitro) is given as 150-160%. In addition, the “total cellular ATP” value in the assay with MCF-7 cells [1] is “significant increase”. Besides, the “levels of ATP” value in the assay on 3T3-L1 adipocytes is reported as “significantly increased”. In addition, the “increase in malonyl-CoA” value in the assay on MCF-7 cells [2] was > 5 fold.

Source of the values: US7459481B2, “Stimulation of CPT-1 as a means to reduce weight” (The Johns Hopkins University School of Medicine Licensing …, priority 2002, dated 2008).
